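Cells were grown in 96-well plates and exposed to each compound for 48 hours at five concentrations; endpoints were interpolated linearly between bracketing concentrations, or set to the highest concentration if not reached. TGI marks complete inhibition of growth.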
What was measured:
Test in all cases: NCI-60 cell line screen, 48 h
CAKI-1 renal = test system: CAKI-1 renal
SK-MEL-28 melanoma = test system: SK-MEL-28 melanoma
KM20L2 colon = test system: KM20L2 colon
SN12C renal = test system: SN12C renal
UO-31 renal = test system: UO-31 renal
IGROV1 ovarian = test system: IGROV1 ovarian
OVCAR-4 ovarian = test system: OVCAR-4 ovarian
HCC-2998 colon = test system: HCC-2998 colon
ACHN renal = test system: ACHN renal
HCT-116 colon = test system: HCT-116 colon
SW-620 colon = test system: SW-620 colon
HL-60(TB) leukemia = test system: HL-60(TB) leukemia
UACC-257 melanoma = test system: UACC-257 melanoma
OVCAR-3 ovarian = test system: OVCAR-3 ovarian
EKVX NSCLC = test system: EKVX NSCLC
MOLT-4 leukemia = test system: MOLT-4 leukemia
SR leukemia = test system: SR leukemia
UACC-62 melanoma = test system: UACC-62 melanoma
SK-MEL-2 melanoma = test system: SK-MEL-2 melanoma
OVCAR-5 ovarian = test system: OVCAR-5 ovarian
SNB-19 CNS = test system: SNB-19 CNS
RXF 393 renal = test system: RXF 393 renal
SNB-78 CNS = test system: SNB-78 CNS
786-0 renal = test system: 786-0 renal
HT29 colon = test system: HT29 colon
SNB-75 CNS = test system: SNB-75 CNS
DLD-1 colon = test system: DLD-1 colon
A549 NSCLC = test system: A549 NSCLC
U251 CNS = test system: U251 CNS
SF-295 CNS = test system: SF-295 CNS
COLO 205 colon = test system: COLO 205 colon
KM12 colon = test system: KM12 colon
DMS 114 small cell lung = test system: DMS 114 small cell lung
DMS 273 small cell lung = test system: DMS 273 small cell lung
OVCAR-8 ovarian = test system: OVCAR-8 ovarian
LXFL 529 NSCLC = test system: LXFL 529 NSCLC
NCI-H460 lung = test system: NCI-H460 lung
SF-539 CNS = test system: SF-539 CNS
RPMI-8226 leukemia = test system: RPMI-8226 leukemia
NCI-H23 lung = test system: NCI-H23 lung
NCI-H522 lung = test system: NCI-H522 lung
K-562 leukemia = test system: K-562 leukemia
CCRF-CEM leukemia = test system: CCRF-CEM leukemia
TK-10 renal = test system: TK-10 renal
HOP-62 NSCLC = test system: HOP-62 NSCLC
HCT-15 colon = test system: HCT-15 colon
NCI-H226 lung = test system: NCI-H226 lung
LOX IMVI melanoma = test system: LOX IMVI melanoma
SF-268 CNS = test system: SF-268 CNS
A498 renal = test system: A498 renal
RXF-631 renal = test system: RXF-631 renal
M14 melanoma = test system: M14 melanoma

SMILES: Cc1ccc(NC(=O)SCCC(=O)O)cc1
- TGI (CAKI-1 renal): > 100 µM
- TGI (SK-MEL-28 melanoma): > 100 µM
- TGI (KM20L2 colon): > 100 µM
- TGI (SN12C renal): > 100 µM
- TGI (UO-31 renal): > 100 µM
- TGI (IGROV1 ovarian): > 100 µM
- TGI (OVCAR-4 ovarian): > 100 µM
- TGI (HCC-2998 colon): > 100 µM
- TGI (ACHN renal): > 100 µM
- TGI (HCT-116 colon): > 100 µM
- TGI (SW-620 colon): > 100 µM
- TGI (HL-60(TB) leukemia): > 100 µM
- TGI (UACC-257 melanoma): > 100 µM
- TGI (OVCAR-3 ovarian): > 100 µM
- TGI (EKVX NSCLC): > 100 µM
- TGI (MOLT-4 leukemia): > 100 µM
- TGI (SR leukemia): > 100 µM
- TGI (UACC-62 melanoma): > 100 µM
- TGI (SK-MEL-2 melanoma): > 100 µM
- TGI (OVCAR-5 ovarian): > 100 µM
- TGI (SNB-19 CNS): > 100 µM
- TGI (RXF 393 renal): > 100 µM
- TGI (SNB-78 CNS): > 100 µM
- TGI (786-0 renal): > 100 µM
- TGI (HT29 colon): > 100 µM
- TGI (SNB-75 CNS): 66.7 µM
- TGI (DLD-1 colon): > 100 µM
- TGI (A549 NSCLC): > 100 µM
- TGI (U251 CNS): > 100 µM
- TGI (SF-295 CNS): > 100 µM
- TGI (COLO 205 colon): > 100 µM
- TGI (KM12 colon): > 100 µM
- TGI (DMS 114 small cell lung): > 100 µM
- TGI (DMS 273 small cell lung): > 100 µM
- TGI (OVCAR-8 ovarian): > 100 µM
- TGI (LXFL 529 NSCLC): > 100 µM
- TGI (NCI-H460 lung): > 100 µM
- TGI (SF-539 CNS): > 100 µM
- TGI (RPMI-8226 leukemia): > 100 µM
- TGI (NCI-H23 lung): > 100 µM
- TGI (NCI-H522 lung): > 100 µM
- TGI (K-562 leukemia): > 100 µM
- TGI (CCRF-CEM leukemia): > 100 µM
- TGI (TK-10 renal): > 100 µM
- TGI (HOP-62 NSCLC): > 100 µM
- TGI (HCT-15 colon): > 100 µM
- TGI (NCI-H226 lung): > 100 µM
- TGI (LOX IMVI melanoma): > 100 µM
- TGI (SF-268 CNS): 94.9 µM
- TGI (A498 renal): > 100 µM
- TGI (RXF-631 renal): > 100 µM
- TGI (M14 melanoma): > 100 µM

— PubChem BioAssay (NCI)
